One test relates to MCF-7 cells. As to the kind of experiment: Cell Growth Inhibition, MCF-7 (CellTiterGlo, 6 days). It counts as cell-based. Conditions: Homo sapiens, MCF7, 144 h, MCF-7, 6-day treatment. An excerpt:
(§1) MCF-7 and OVCAR-3 cells were used to evaluate the anti-proliferation activity of the CDK inhibitors. MCF-7 (ATCC, HTB-22) cells are epithelial cells from a patient with ER+ metastatic adenocarcinoma. OVCAR-3 (ATCC, HTB-161) cells were derived from malignant ascites of a patient with ovarian cancer and are known to have CCNE1 amplification. Both cell lines were maintained in RPMI media supplemented with 10% fetal bovine serum. For cell growth inhibition assay, CDK inhibitors in DMSO solution were dispensed with either Echo 655 (Beckman Coulter) or Tecan D300e (HP) into 384-well plates (Corning #3765) and the 384-well plates were UV-sterilized prior to the assay. The inhibitors were typically tested in the 10-10,000 nM concentration range with half-log serial dilutions. MCF-7 or OVCAR-3 (500 cells/30 μL/well) were added to each well using Multidrop Combi (ThermoFisher) using standard cassettes. The assay plates with cells were cultured at 37° C., 5% CO2 for 6 days. At the end of the 6-day treatment, 30 μL of CellTiterGlo 2.0 (Promega) was added to each well and the luminescent signal was read using CLARIOstar plus (BMG). The percentage of cell growth inhibition (% CGI) was calculated using the following formula 00 CGI=100-100×luminescencesampie/luminescencecontroi. The half maximal inhibitory concentration (IC50) was determined by nonlinear curve fitting (four parameters, variable slope).
A general note: In ATP-based viability assays light output follows the ATP content of the culture.

For another test, the target named is CDK6/Cyclin D3 (Homo sapiens (Human), UniProt Q00534). The experiment in a line: CDK6/Cyclin D3 ADP-Glo Kinase Assay. The format is biochemical. The note with it: 100 uM ATP, read-out: CDK6/ CyclinD3 IC50. How it is done: CDK6/Cyclin D3 ADP-Glo Kinase Assay
The purpose of the CDK6/Cyclin D3 assay is to evaluate the inhibition (% inhibition and IC50 values) in the presence of small molecule inhibitors by using a Luminescent based ADP-Glo assay. CDK6/Cyclin D3 catalyzes the production of ADP from ATP. ADP-Glo assay monitors ADP producing biochemical reactions. ADP-Glo is performed in 2 steps upon completion of kinase reaction: a combined termination of kinase reaction and depletion of remaining ATP in the first step, and conversion of generated ADP to […] and the newly produced ATP to light output using luciferase/luciferin reaction in the second step. The luminescent signal generated is proportional to the ADP concentration produced and is correlated with the kinase activity CDK6/Cyclin D3 was purchased from Carna. […] The assay was initiated with the addition of ATP-containing substrate solution, following a 30-minute pre-incubation of enzyme and inhibitor at room temperature in the reaction mixture. The reaction was stopped after 90 minutes at room temperature by the addition of 10 uL of ADP-GLO Reagent. After a 90-minute incubation, 20 uL of Kinase Detection Reagent was added. Samples were incubated for 40 minutes, after which plate well luminescence was measured on a Envision microplate reader. The IC50 determinations were made from a plot of the fractional velocity as a function of inhibitor concentration fit to the 4 parameters IC50 equation.
On the technique in general: ADP-Glo turns the ADP formed in a reaction into a luminescent signal.

The subject of another test is OVCAR-3 cells. As to the kind of experiment: Cell Growth Inhibition, OVCAR-3 (CellTiterGlo, 6 days). It counts as cell-based. Conditions: Homo sapiens, 144 h, OVCAR-3, 6-day treatment.
Excerpt: as §1

The next test addresses CDK2/Cyclin E1 (Homo sapiens (Human), UniProt P24941). As to the kind of experiment: CDK2/Cyclin E1 Full length ADP-Glo Kinase Assay. The format is biochemical. Conditions: 20 uM ATP, read-out: CDK2/ CyclinE1 IC50. How it is done: CDK2/Cyclin E1 Full length ADP-Glo Kinase Assay
(§2) The purpose of CDK2/Cyclin E1 assay is to evaluate the inhibition (% inhibition and IC50 values) of small molecule inhibitors by using a Luminescent based ADP-Glo assay. CDK2/Cyclin E1 full length catalyzes the production of ADP from ATP. ADP-Glo assay monitors ADP producing biochemical reactions. ADP-Glo is performed in 2 steps upon completion of kinase reaction: a combined termination of kinase reaction and depletion of remaining ATP in the first step, and conversion of generated ADP to ATP and the newly produced ATP to light output using luciferase/luciferin reaction in the second step. The luminescent signal generated is proportional to the ADP concentration produced and is correlated with the kinase activity. CDK2/Cyclin E1 was purchased from Eurofins (Cat 14-475M). […] The assay was initiated with the addition of ATP-containing substrate solution, following a 30-minute pre-incubation of enzyme and inhibitor at room temperature in the reaction mixture. The reaction was stopped after 90 minutes at room temperature by the addition of 10 uL of ADP-GLO Reagent. After a 90 minute incubation, 20 uL of Kinase Detection Reagent was added. Samples were incubated for 40 minutes, after which plate well luminescence was measured on a Envision microplate reader. The IC50 determinations were made from a plot of the fractional velocity as a function of inhibitor concentration fit to the 4 parameters IC50 equation.

A further test concerns the target CDK4/Cyclin D1 (Homo sapiens (Human), UniProt P11802). The experiment in a line: CDK4/Cyclin D1 CHEF Assay (AQT0258 peptide). The format is biochemical. Conditions: 200 uM ATP, read-out: CDK4/ CyclinD1 AQT IC50. An excerpt: CDK4/Cyclin D1 CHEF Assay
The purpose of CDK4/Cyclin D1 assay is to evaluate the inhibition (% inhibition and IC50 values) of small molecule inhibitors by using a Chelation-Enhance Fluorescence (CHEF) assay. In a CHEF assay, phosphorylation of a peptide substrate results in proportional increase in fluorescence. CHEF kinase assay use peptide substrates containing a synthetic alpha-amino acid with a side chain bearing an 8-hydroxyquinoline derivative (sulfonamido-oxide, Sox). Upon phosphorylation of a nearby serine, threonine or tyrosine and in the presence of Mg(II), the spectral properties of the Sox residue are altered, emitting 485 nm wavelength light when excited with a 360 nm wavelength light source. CDK4/Cyclin D1 catalyzes the phosphoryl transfer to the SOX-labeled substrate peptide AQT0258 from Assayquant Technologies. […] The reaction was initiated with the addition of substrate solution, following a 30-minute pre-incubation of enzyme and inhibitor at 22° C. in the reaction mix. Reactions were allowed to proceed for 3 hrs at 22° C., followed by fluorescence read of the reaction. The IC50 determinations were made from a plot of the fractional velocity as a function of inhibitor concentration fit to the 4 parameters IC50 equation.

The target of the next test is CDK1/Cyclin B1 (Homo sapiens (Human), UniProt P06493). As to the kind of experiment: CDK1/Cyclin B1 ADP-Glo Kinase Assay. The format is biochemical. Conditions: ADP-Glo, 80 uM ATP; read-out: CDK1 Cyclin B1 IC50. How it is done:
CDK1/Cyclin B1 ADP-Glo Kinase Assay
as §2, with “CDK1/Cyclin B1” for “CDK2/Cyclin E1”, “CDK1/Cyclin B1” for “CDK2/Cyclin E1 full length”, “Carna” for “Eurofins”, “04-102).” for “14-475M).”

A value given as a limit tells only on which side of the number the result lay.

Sequence of CDK1/Cyclin B1 (P06493 whole entry): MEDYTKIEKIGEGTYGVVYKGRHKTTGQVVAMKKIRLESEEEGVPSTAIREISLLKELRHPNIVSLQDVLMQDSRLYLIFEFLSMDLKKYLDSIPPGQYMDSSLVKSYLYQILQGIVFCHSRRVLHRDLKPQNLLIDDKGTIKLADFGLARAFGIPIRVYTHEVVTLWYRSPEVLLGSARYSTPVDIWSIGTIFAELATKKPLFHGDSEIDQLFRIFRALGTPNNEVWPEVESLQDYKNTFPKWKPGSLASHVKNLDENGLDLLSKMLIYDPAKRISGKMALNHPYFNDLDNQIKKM
Sequence of CDK1/Cyclin B1 (P14635 whole entry partner): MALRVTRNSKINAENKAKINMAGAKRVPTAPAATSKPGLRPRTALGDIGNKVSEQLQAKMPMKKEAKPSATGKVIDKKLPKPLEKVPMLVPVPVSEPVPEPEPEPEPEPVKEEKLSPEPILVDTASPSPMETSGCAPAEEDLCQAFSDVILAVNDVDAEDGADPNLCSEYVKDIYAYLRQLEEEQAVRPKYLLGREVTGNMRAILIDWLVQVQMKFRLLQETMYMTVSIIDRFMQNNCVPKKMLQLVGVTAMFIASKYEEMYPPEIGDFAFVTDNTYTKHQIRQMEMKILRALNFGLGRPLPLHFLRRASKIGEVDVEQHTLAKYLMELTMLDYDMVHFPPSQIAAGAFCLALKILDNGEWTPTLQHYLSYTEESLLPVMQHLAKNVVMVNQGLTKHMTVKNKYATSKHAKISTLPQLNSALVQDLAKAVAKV
Sequence of CDK4/Cyclin D1 (P11802 whole entry): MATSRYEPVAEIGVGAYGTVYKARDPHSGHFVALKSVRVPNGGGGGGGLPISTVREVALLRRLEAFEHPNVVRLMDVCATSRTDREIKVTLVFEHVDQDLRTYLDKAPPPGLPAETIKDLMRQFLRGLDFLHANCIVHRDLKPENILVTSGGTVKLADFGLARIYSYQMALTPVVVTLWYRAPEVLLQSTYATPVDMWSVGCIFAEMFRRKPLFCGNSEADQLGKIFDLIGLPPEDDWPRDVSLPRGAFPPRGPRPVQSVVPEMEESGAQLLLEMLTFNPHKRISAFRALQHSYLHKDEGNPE
Sequence of CDK4/Cyclin D1 (P24385 whole entry partner): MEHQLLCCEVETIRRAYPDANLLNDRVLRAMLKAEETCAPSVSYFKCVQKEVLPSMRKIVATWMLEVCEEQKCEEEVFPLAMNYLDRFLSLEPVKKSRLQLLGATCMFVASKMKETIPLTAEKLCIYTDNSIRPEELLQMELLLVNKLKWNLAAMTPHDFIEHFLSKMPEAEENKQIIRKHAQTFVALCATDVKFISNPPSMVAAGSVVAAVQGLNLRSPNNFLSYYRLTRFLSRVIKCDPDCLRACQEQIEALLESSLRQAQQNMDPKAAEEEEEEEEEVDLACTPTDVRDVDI
Sequence of CDK6/Cyclin D3 (Q00534 whole entry): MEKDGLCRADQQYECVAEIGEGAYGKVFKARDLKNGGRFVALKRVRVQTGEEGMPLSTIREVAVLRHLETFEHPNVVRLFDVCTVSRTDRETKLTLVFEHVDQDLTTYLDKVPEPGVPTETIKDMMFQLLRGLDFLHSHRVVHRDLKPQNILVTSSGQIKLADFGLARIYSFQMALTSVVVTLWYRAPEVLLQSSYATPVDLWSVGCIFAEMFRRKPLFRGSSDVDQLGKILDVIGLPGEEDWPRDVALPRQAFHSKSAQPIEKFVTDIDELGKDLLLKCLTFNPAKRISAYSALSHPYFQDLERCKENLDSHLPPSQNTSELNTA
Sequence of CDK6/Cyclin D3 (P30281 whole entry partner): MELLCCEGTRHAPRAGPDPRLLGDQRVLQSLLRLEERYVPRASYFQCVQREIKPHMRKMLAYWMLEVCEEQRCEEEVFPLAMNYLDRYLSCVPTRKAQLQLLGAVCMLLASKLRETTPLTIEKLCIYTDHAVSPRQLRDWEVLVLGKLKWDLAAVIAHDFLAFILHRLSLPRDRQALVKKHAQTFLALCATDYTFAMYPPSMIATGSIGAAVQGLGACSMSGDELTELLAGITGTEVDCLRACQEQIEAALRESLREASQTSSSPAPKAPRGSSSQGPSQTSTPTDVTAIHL

In the case of `CN1Cc2ccc(Nc3ncc4ccnc(N5CCC6(CCN(S(C)(=O)=O)C6)C5)c4n3)cc2C1` (stereo not shown) [Compound 23, N-(2-methylisoindolin-5-yl)-8-(7-(methylsulfonyl)-2,7-diazaspiro[4.4]nonan-2-yl)pyrido[3,4-d]pyrimidin-2-amine], the IC50 is under 200 nM in the test with MCF-7 cells; under 200 nM on CDK6/Cyclin D3; under 200 nM in the test on OVCAR-3 cells; under 200 nM at CDK2/Cyclin E1; under 200 nM on CDK4/Cyclin D1; 500 to 2000 nM on CDK1/Cyclin B1.
`CN1Cc2ccc(Nc3ncc4ccnc(N5CC6(C5)CS(=O)(=O)C6)c4n3)cc2C1` [Compound 24, 6-(2-((2-methylisoindolin-5-yl)amino)pyrido[3,4-d]pyrimidin-8-yl)-2-thia-6-azaspiro[3.3]heptane 2,2-dioxide]: the IC50 in the test with MCF-7 cells is 500 to 2000 nM; on CDK6/Cyclin D3, under 200 nM; in the test on OVCAR-3 cells, 500 to 2000 nM; at CDK2/Cyclin E1, under 200 nM; at CDK4/Cyclin D1 it was under 200 nM; on CDK1/Cyclin B1 it was 500 to 2000 nM.
Turning to `Cc1cc2cnc(Nc3cnn(C4CC5(C4)CN(C)C5)c3)nc2c(N2CC3(C2)CN(S(C)(=O)=O)C3)n1` [Compound 26, 6-methyl-N-(1-(2-methyl-2-azaspiro[3.3]heptan-6-yl)-1H-pyrazol-4-yl)-8-(6-(methylsulfonyl)-2,6-diazaspiro[3.3]heptan-2-yl)pyrido[3,4-d]pyrimidin-2-amine], the IC50 is over 2000 nM in the test with MCF-7 cells; 500 to 2000 nM on CDK6/Cyclin D3; over 2000 nM in the test with OVCAR-3 cells; 200 to 500 nM at CDK2/Cyclin E1; 200 to 500 nM on CDK4/Cyclin D1; over 2000 nM at CDK1/Cyclin B1.
Take `Cc1cc2cnc(Nc3ccc4c(c3)CN(S(C)(=O)=O)C4)nc2c(N2CC3(CN(C)C3)C2)n1` [Compound 27, 6-methyl-8-(6-methyl-2,6-diazaspiro[3.3]heptan-2-yl)-N-(2-(methylsulfonyl)isoindolin-5-yl)pyrido[3,4-d]pyrimidin-2-amine]: the IC50 was over 2000 nM with MCF-7 cells; 500 to 2000 nM at CDK6/Cyclin D3; 500 to 2000 nM with OVCAR-3 cells; under 200 nM on CDK2/Cyclin E1; 500 to 2000 nM on CDK4/Cyclin D1; 500 to 2000 nM on CDK1/Cyclin B1.
As to `Cc1cc2cnc(NC3CCN(S(C)(=O)=O)CC3)nc2c(N2CC3(CNCC3C(F)F)C2)n1` (stereo not shown) [Compound 100, 8-(8-(difluoromethyl)-2,6-diazaspiro[3.4]octan-2-yl)-6-methyl-N-(1-(methylsulfonyl)piperidin-4-yl)pyrido[3,4-d]pyrimidin-2-amine], the IC50 on CDK6/Cyclin D3, at CDK2/Cyclin E1, on CDK4/Cyclin D1 and on CDK1/Cyclin B1 was under 200 nM each time.
Take `Cc1cc2cnc(NC3CCN(S(C)(=O)=O)CC3)nc2c(N2CC3(CN(C)CC3(F)F)C2)n1` [Compound 101, 8-(8,8-difluoro-6-methyl-2,6-diazaspiro[3.4]octan-2-yl)-6-methyl-N-(1-(methylsulfonyl)piperidin-4-yl)pyrido[3,4-d]pyrimidin-2-amine]: the IC50 is under 200 nM on CDK6/Cyclin D3, under 200 nM at CDK2/Cyclin E1, under 200 nM at CDK4/Cyclin D1 and 200 to 500 nM on CDK1/Cyclin B1.
As for `Cc1cc2cnc(NC3CCN(S(=O)(=O)C4CC4)CC3)nc2c(N2CC(F)(F)C3(CN(C)C3)C2)n1` [Compound 102, N-(1-(cyclopropylsulfonyl)piperidin-4-yl)-8-(8,8-difluoro-2-methyl-2,6-diazaspiro[3.4]octan-6-yl)-6-methylpyrido[3,4-d]pyrimidin-2-amine], the IC50 on CDK6/Cyclin D3, on CDK2/Cyclin E1, at CDK4/Cyclin D1 and on CDK1/Cyclin B1 was under 200 nM throughout.
`[2H]C([2H])([2H])N1CC2(CN(c3nc(C)cc4cnc(NC5CCN(S(C)(=O)=O)CC5)nc34)CC2(F)F)C1` [Example 12, 8-(8,8-difluoro-2-(methyl-d3)-2,6-diazaspiro[3.4]octan-6-yl)-6-methyl-N-(1-(methylsulfonyl)piperidin-4-yl)pyrido [3,4-d]pyrimidin-2-amine]: the IC50 on CDK6/Cyclin D3, at CDK2/Cyclin E1, at CDK4/Cyclin D1 and on CDK1/Cyclin B1 was under 200 nM throughout.
Regarding `O=S(=O)(C1CC1)N1CCC(Nc2ncc3cc(C(F)F)nc(N4CC5(CCNC5)C4)c3n2)CC1` [Example 46], the IC50 in the test on MCF-7 cells is 500 to 2000 nM; at CDK6/Cyclin D3, under 200 nM; with OVCAR-3 cells, 500 to 2000 nM; at CDK4/Cyclin D1, under 200 nM; at CDK1/Cyclin B1, under 200 nM.
As to `Cc1cc2cnc(NC3CCN(S(C)(=O)=O)CC3)nc2c(C2CC(O)(C3CC3)C2)n1` (stereo not shown) [Example 88, 1-cyclopropyl-3-(6-methyl-2-((1-(methylsulfonyl)piperidin-4-yl)amino)pyrido[3,4-d]pyrimidin-8-yl)cyclobutan-1-ol], the IC50 was under 200 nM at CDK6/Cyclin D3, under 200 nM at CDK2/Cyclin E1, under 200 nM at CDK4/Cyclin D1 and 200 to 500 nM at CDK1/Cyclin B1.

The values above are taken from patent US20240034731A1, “AZA-QUINAZOLINE COMPOUNDS AND METHODS OF USE” (Iambic Therapeutics, Inc., priority 2022, published 2024).
